Laboratory results taken from US20120149026A1, “INSULIN RESISTANCE MARKER” (SHIMADZU CORPORATION, priority 2009, published 2012).

B1: proepithelin protein: epithelin precursor protein having seven kinds of epithelin domains; purchased from AdipoGen, Inc. (protein)
chain: MWTLVSWVALTAGLVAGTRCPDGQFCPVACCLDPGGASYSCCRPLLDKWPTTLSRHLGGPCQVDAHCSAGHSCIFTVSGTSSCCPFPEAVACGDGHHCCPRGFHCSADGRSCFQRSGNNSVGAIQCPDSQFECPDFSTCCVMVDGSWGCCPMPQASCCEDRVHCCPHGAFCDLVHTRCITPTGTHPLAKKLPAQRTNRAVALSSSVMCPDARSRCPDGSTCCELPSGKYGCCPMPNATCCSDHLHCCPQDTVCDLIQSKCLSKENATTDLLTKLPAHTVGDVKCDMEVSCPDGYTCCRLQSGAWGCCPFTQAVCCEDHIHCCPAGFTCDTQKGTCEQGPHQVPWMEKAPAHLSLPDPQALKRDVPCDNVSSCPSSDTCCQLTSGEWGCCPIPEAVCCSDHQHCCPQGYTCVAEGQCQRGSEIVAGLEKMPARRASLSHPRDIGCDQHTSCPVGQTCCPSLGGSWACCQLPHAVCCEDRQHCCPAGYTCNVKARSCEKEVVSAQPATFLARSPHVGVKDVECGEGHFCHDNQTCCRDNRQGWACCPYRQGVCCADRRHCCPAGFRCAARGTKCLRREAPRWDAPLRDPALRQLL
modifications: human

Assays:
Type in all cases: cell-based, mouse
proepithelin protein = assay: Analysis of proepithelin protein by Western blotting in insulin resistance-induced adipocytes; settings: matured 3T3-L1 adipocytes; for expression amount of proepithelin protein relative to GADPH, increase versus control: 4 ng/mL TNFα for four days or 20 nM dexamethazone for eight days, p-value <0.05
Procedure: Using the matured adipocyte at the eighth or later day after the differentiation inducing treatment, the cells were cultured in an adipocyte maintenance medium added with 20 nM dexamethazone for eight days to induce insulin resistance, and an adipocyte in which insulin resistance was induced by dexamethazone was obtained. On the other hand, using the matured adipocyte at the eighth or later day after the differentiation inducing treatment, the cells were cultured for four days in an adipocyte maintenance medium added with 4 ng/mL TNFα to induce insulin resistance, and an adipocyte in which insulin resistance was induced by TNFα was obtained.
A matured adipocyte in which insulin resistance was induced by the method of Reference Example 2 was solubilized in a TNE buffer (1% (w/w) Nonidet P-40, 150 mM sodium chloride, 20 mM Tris-hydrochloride (pH 7.4), 2 mM EDTA, 10 μg/mL leupeptin, 10 μg/mL aprotinine, 5 mM mercaptoethanol, 1 mM: PMSF, 1 mM Na3VO4, 10 μM sodium molybdate, and 50 mM sodium fluoride), and a protein was extracted. The extracted protein was separated by SDS-polyacrylamide gel electrophoresis (SDS-PAGE), and then transferred to a polyvinylidene fluoride (PVDF) membrane or a nitrocellulose membrane. A goat anti-proepithelin antibody (R&D Systems) was used as a primary antibody, a rabbit anti-goat IgG HRP-labeled antibody (ZYMED) was used as a secondary antibody, and ECL Blotting Detection Reagents (GE Healthcare) were used for detection of an HRP-labeled antibody.
The result obtained in this example (analytical result of a proepithelin protein by the Western blotting method) is shown in FIG. 2. In FIG. 2A, the vertical axis represents a relative value of an expression amount of a proepithelin protein, relative to an expression amount of a house keeping protein GADPH, and for each of a control (Control), the adipocyte in which insulin resistance was induced by TNFα (TNFα), and the adipocyte in which insulin resistance was induced by dexamethazone (Dex), the relative value is shown (mean value±standard deviation (mean±S.D.), n=4, p-value: **<0.05). […]

proepithelin (aa297-309) = assay: Expression variation analysis of proepithelin protein by NBS method in insulin resistance-induced adipocytes; settings: matured 3T3-L1 adipocytes; 4 ng/mL TNFα for four days or 20 nM dexamethazone for eight days; p-value <0.05
Procedure: Mouse 3T3-L1 cells (ATCC No. CCL-92.1.) were added with Dulbecco's modified Eagle's medium—low glucose (Wako Pure Chemical Industries, Ltd.), 10% bovine serum (GIBCO BRL), and a penicillin/streptomycin solution (GIBCO BRL), and cultured at 37° C. in 5% carbon dioxide.
After reaching confluent, the cells were further cultured for two days. Then the medium was replaced by a differentiation inducing medium. As the differentiation inducing medium, Dulbecco's modified Eagle's medium—high glucose (Wako Pure Chemical Industries, Ltd.) added with 10% fetal bovine serum, a penicillin/streptomycin solution (GIBCO BRL), 0.5 mM 1-methyl-3-isobutylxanthine, 1 μM dexamethazone, and 5 μg/mL insulin was used.
After three days, the medium was replaced by Dulbecco's modified Eagle's medium—high glucose (Wako Pure Chemical Industries, Ltd.), 10% fetal bovine serum, a penicillin/streptomycin solution (GIBCO BRL), and 5 μg/mL insulin, and cultured for two days. […]
For the obtained digests, a treatment was conducted according to the protocol of the NBS labeling kit, and the NBS-labeled peptide was concentrated. […] Comparative quantification analysis between 12C-NBS-labeled peptide and 13C-NBS-labeled peptide was conducted from the results obtained by automatic analysis of MALDI-TOF MS (AXIMA-CFR Plus; SHIMADZU CORPORATION) by using pair peak analyzing software (TWIP). […]

pAkt-Ser473 = assay: Effect of proepithelin protein on insulin signaling (Akt phosphorylation, Western blotting); settings: matured 3T3-L1 adipocytes; proepithelin 10, 50, 100, 200 nM, cultured for 30 minutes, with or without 100 nM insulin; FIG. 6
Procedure: A matured adipocyte prepared according to the method of Reference Example 1 was added with 100 nM insulin and a proepithelin protein (AdipoGen, Inc.) and cultured for 30 minutes, or added with 100 nM insulin without addition of proepithelin protein and cultured for 30 minutes to prepare an adipocyte (+100 nM Insulin) stimulated by insulin. When the proepithelin protein was added, concentrations of the proepithelin protein were 10 nM, 50 nM, 100 nM, and 200 nM.
The obtained adipocyte stimulated by insulin was solubilized in an RIPA buffer {1% (W/w) Triton X-100, 1% sodium deoxycholate, 0.1% sodium dodecylsulfate, 150 mM sodium chloride, 20 mM Tris-hydrochloride (pH7.4), 2 mM EDTA, 10 μg/mL leupeptin, 10 μg/mL aprotinin, 5 mM mercaptoethanol, 1 mM PMSF, 1 mM Na3VO4, 10 μM sodium molybdate, 50 mM sodium fluoride}, and proteins were extracted.
The extracted proteins were subjected to the Western blotting method. Concretely, following separation by SDS-polyacrylamide gel electrophoresis (SOS-PAGE), the protein was transferred to a polyvinylidene fluoride (PVDF) membrane or a nitrocellulose membrane. […]

phosphorylated Akt = assay: Insulin signaling-suppressing action by constant presence of proepithelin protein (Akt phosphorylation, Western blotting); settings: matured 3T3-L1 adipocytes; proepithelin 50, 100, 200 nM for 6 hours, then 100 nM insulin for 30 minutes; FIG. 7
Procedure: A matured adipocyte prepared according to the method of Reference Example 1 was added with a proepithelin protein (AdipoGen, Inc.) and incubated for 6 hours, and then added with 100 nM insulin and cultured for 30 minutes, or added with 100 nM insulin without addition of a proepithelin protein, and cultured for 30 minutes, to prepare an adipocytes stimulated by insulin (+100 nM Insulin). When the proepithelin protein was added, concentrations of the proepithelin protein were set at 50 nM, 100 nM, and 200 nM.
A matured adipocyte prepared according to the method of Reference Example 1 was added with a proepithelin protein (AdipoGen, Inc.) and cultured for 6 hours, or cultured for 30 minutes without addition of both insulin and a proepithelin protein, to prepare an adipocyte not stimulated with insulin (−Insulin). When the proepithelin protein was added, concentrations of the proepithelin protein were set at 50 nM, 100 nM, and 200 nM.
For each of the adipocyte stimulated by insulin (+100 nM Insulin) and the adipocyte not stimulated by insulin (−Insulin) obtained in the manner as described above, protein extraction and Western blotting were conducted in the same manner as in Example 6.

| Molecule | expression amount of proepithelin protein relative to GADPH, increase versus control (proepithelin protein) | upregulation of proepithelin protein with varied inducer concentration (proepithelin protein; concentrations of TNFα (ng/ml) and dexamethazone (nM) changed, FIG. 3) | relative intensity of proepithelin (aa297-309) NBS-labeled peptide, insulin resistance adipocyte relative to normal adipocyte (proepithelin (aa297-309)) | phosphorylation level at 473th serine in the Akt protein (pAkt-Ser473) | phosphorylation level of an Akt protein after preliminary treatment (phosphorylated Akt) |
| --- | --- | --- | --- | --- | --- |
| tumor necrosis factor α [TNFα] | 1.83 times | dependent on the concentration | 1.66 times | – | – |
| C[C@@H]1C[C@H]2[C@@H]3CCC4=CC(=O)C=C[C@]4(C)[C@@]3(F)[C@@H](O)C[C@]2(C)[C@@]1(O)C(=O)CO [dexamethazone] | 1.95 times | – | 3.01 times | – | – |
| B1 | – | – | – | increased with the concentration of added proepithelin | decreased |
